B1: Evolocumab (antibody, chains of the INN, looked up, V domains shown)
VH: EVQLVQSGAEVKKPGASVKVSCKASGYTLTSYGISWVRQAPGQGLEWMGWVSFYNGNTNYAQKLQGRGTMTTDPSTSTAYMELRSLRSDDTAVYYCARGYGMDVWGQGTTVTVSS
VL: ESALTQPASVSGSPGQSITISCTGTSSDVGGYNSVSWYQQHPGKAPKLMIYEVSNRPSGVSNRFSGSKSGNTASLTISGLQAEDEADYYCNSYTSTSMVFGGGTKLTVL
notes: CAS 1256937-27-5

Columns and labels:
[1] = test system: naturally aged C57BL6J mice; assay: Geriatric depression and anxiety in aged mice, Example 21-8; format: in vivo, mouse; conditions: aged mice
Excerpt: The amount of senescent-associated secretory factor (SASP) in serum and tissues collected from mice of Examples 21-5 and 21-6 was reduced by treatment with LX-5701, LX-2101, or LX-2102. It was confirmed that removing senescent cells, which increase with aging in mice, and effectively reducing the amount of senescent-associated secretory factor (SASP) can improve symptoms of geriatric depression and anxiety.

[2] = test system: obesity-induced aged C57BL6J mice; assay: Anxiety, depression, lethargy (open field test) in obesity-aged mice, Example 23-4, Table 44; format: in vivo, mouse; conditions: obesity-aged mice
Method: 15-week-old male C57BL6J mice (The Jackson Laboratory) were induced to obesity by a high-fat diet using the same method as in Example 9-1 WO2023-085787 A1. After acclimation to the experimental environment for one week, the mice were randomly assigned to experimental and control groups. […] LX-3002 was mixed in distilled water with 4% DMSO, 30% PEG300, and 5% Tween80 and administered orally at a concentration of 10 mg/kg daily for 21 days. LX-5701 was mixed in PBS and administered orally at a concentration of 360 mg/kg daily for 21 days. LX-6807 was mixed in saline and administered intraperitoneally at a concentration of 1 mg/kg daily for 21 days. The control group received only the solution in the same volume. After the end of drug administration, the methods described in each example below were performed.
It was determined that anxiety and depression caused by obesity are not causally related to increased body weight, but rather are caused by the accumulation of senescent cells. Accordingly, an activity assessment (open field test) was performed using the same method as in Example 7-7 of WO2023-085787 A1 to analyze lethargy caused by anxiety and depression caused by obesity in mice. The table below quantitatively represents activity, a criterion for assessing lethargy due to anxiety and depression, under conditions in which aging was induced by obesity and the test compound was not administered or was administered. The activity assessment after obesity-induced aging was calculated as 100% and compared with the activity assessment after test compound treatment.

[3] = test system: senescent A549 cells; assay: Viability of senescent A549 cells (CellTiter-Glo), Example 18, Table 15; conditions: for Survival (%): doxorubicin-induced senescent A549 cells, 0 μM = 100%
[4] = test system: senescent cells; assay: Viability of senescent cells (CellTiter-Glo), Example 17, Table 13; conditions: for Survival (%): doxorubicin-induced senescent cells, 0 μM = 100
[5] = test system: senescent foreskin cells; assay: Survival of senescent human cells treated with supernatant (secreted fluid) from death-induced cells, Example 13; format: cell-based; conditions: Table 8; supernatant from dying senescent cells treated at 30, 90 or 270 μM (as Example 11); senescent treated cells
[6] = test system: carbon tetrachloride-induced liver fibrosis mice; assay: Carbon tetrachloride-induced liver fibrosis mice, Example 31, Table 57; format: in vivo, mouse; conditions: CCl4-induced liver fibrosis mice, untreated = 100%
How it was run: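 Mice with induced hepatic fibrosis received either the test compound or, as controls, an equal volume of vehicle solution alone. Once dosing ended, liver tissue was harvested and total RNA was isolated. cDNA was synthesized from this RNA, and quantitative RT-PCR was run on it to measure hepatic mRNA levels of the fibrosis- and senescence-related genes.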

[7] = test system: HMGN1 secreted from senescent A549 cells; assay: HMGN1 secretion (ELISA) from senescent A549 cancer cells, Example 12; format: cell-based, human; conditions: senescent untreated = 100%; 30 μM; 90 μM for LX-305, 905, 1302, 1601, 1603, 2003, 2702, 2901, 3106; 270 μM for LX-1103, 2005, 2007;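 note: A549 cells made senescent by doxorubicin exposure, with DMSO-treated cells serving as the non-senescent control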
[8] = test system: senescent human cells; assay: Viability of doxorubicin-induced senescent human cells (CellTiter-Glo), Example 11; format: cell-based; conditions: Homo sapiens, 0 μM = 100, read-out: Survival; for viability at […]: 3.3 μM
[9] = test system: naturally aged mice; assay: Anti-aging evaluation in naturally aged mice, Example 31, Table 55; format: in vivo, mouse; conditions: for Femur Ctsk mRNA / Kidney Agtr1a mRNA / Liver IL6 mRNA / Liver MMP3 mRNA / Liver p16 mRNA / Open Field Test Time in Center: untreated = 100%; for Heart Sur2a mRNA / Joint Col2a1 mRNA / Skin Col1a1 mRNA / Skin SDF1 mRNA: untreated = 1.0; for Muscle Mass: untreated 0.64 g; for Fat Mass: untreated 0.82 g; for Cataract incidence: untreated 83%;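 for all read-outs here: Vehicle-dosed control mice received solution alone at matching volume, values compare test-compound-treated aged mice against that control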
[10] = test system: bleomycin-induced pulmonary fibrosis mice; assay: Bleomycin-induced pulmonary fibrosis mice, Example 31, Table 56; format: in vivo, mouse; conditions: untreated = 100%
How it was run: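 After treatment with test compound or vehicle alone, lungs of bleomycin-induced pulmonary fibrosis mice were harvested. Total RNA extracted and gene expression quantified by qRT-PCR.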

[11] = test system: HMGN1 secreted from senescent A549 cells; assay: HMGN1 secretion (ELISA) from senescent A549 cells, Example 18, Table 14; format: cell-based, human; conditions: doxorubicin-senescent A549, without test compound (DMSO) = 100%; 30 μM (LX-5211, LX-5433, LX-6530, LX-6800, LX-9105, LX-9118, LX-9131, LX-9136, LX-9302, LX-9321, LX-9565, LX-9602 at 90 μM; LX-9336 at 2.4 mM)
[12] = test system: senescent A549 cells; assay: Viability of senescent A549 cancer cells (CellTiter-Glo), Example 12; format: cell-based, human; conditions: Homo sapiens, A549, 0 μM = 100, read-out: Survival
[13] = Homo sapiens, A549, read-out: Survival (%)
[14] = Homo sapiens, read-out: Survival (%)

| Molecule | Liver p16 mRNA [6] | Col1a1 mRNA [6] | Femur Ctsk mRNA [9] | Heart Sur2a mRNA [9] | Joint Col2a1 mRNA [9] | Kidney Agtr1a mRNA [9] | Liver IL6 mRNA [9] | Liver MMP3 mRNA [9] | Liver p16 mRNA [9] | Open Field Test Time in Center [9] | Skin Col1a1 mRNA [9] | Skin SDF1 mRNA [9] | Muscle Mass [9] | Fat Mass [9] | Cataract incidence [9] | Lung p16 mRNA [10] | Col1a1 mRNA [10] | Survival (%) ([3]; 1.1 μM) | Survival (%) ([3]; 10 μM) | Survival (%) ([3]; 30 μM) | other results |
| --- | --- | --- | --- | --- | --- | --- | --- | --- | --- | --- | --- | --- | --- | --- | --- | --- | --- | --- | --- | --- | --- |
| Cc1nc(C(=O)NCC(=O)O)c(O)c2ccc(Oc3ccccc3)cc12 [LX-6806, Roxadustat] |  |  |  |  |  |  |  |  |  |  |  |  |  |  |  |  |  |  |  |  | amount of SASP, p16, SA-β-gal, lipofuscin [1]: reduced; symptoms of geriatric depression and anxiety [1]: improved; geriatric depression [2]: similarly improving geriatric depression; viability at 1.1 µM [3, 13]: 106%; viability at 10 µM [3, 13]: 67.2%; viability at 30 µM [3, 13]: 23.5%; viability at 1.1 µM [4, 14]: 95.4%; viability at 10 µM [4, 14]: 61.2%; viability at 30 µM [4, 14]: 32.8% |
| CCN(CC)C(=S)SSC(=S)N(CC)CC [LX-1601, Disulfiram] | 48 (±4.0) % | 50 (±2.0) % | 40% | 2.6 fold | 2.0 fold | 66% | 43% | 39% | 62% | 228% | 1.8 Fold | 2.1 fold | 0.74 g | 1.20 g | 62% | 52 (±3.7) % | 63 (±4.6) % |  |  |  | Survival [5]: 81.4; HMGN1 [7]: 257%; viability at […] [8]: 90% |
| Alirocumab [LX-9562] |  |  |  |  |  |  |  |  |  |  |  |  |  |  |  |  |  | 94.1% | 51.8% | 2.1% | Survival (%) ([3]; […]): 89.1%; Survival (%) ([4]; 1.1 μM): 97.0%; Survival (%) ([4]; 10 μM): 45.4%; Survival (%) ([4]; 30 μM): 14.0%; Survival (%) ([4]; […]): 97.3%; HMGN1 [11]: 269% |
| Cc1nnc(-c2cc(C(=O)N3CCC(c4ccc(C#N)cc4)CC3)c(C)cc2C2CCC2)[nH]1 [LX-305] | 64 (±2.3) % | 70 (±3.2) % | 73% | 1.8 fold | 2.6 fold | 73% | 61% | 78% | 69% | 157% | 1.7 Fold | 1.9 fold | 0.66 g | 0.91 g | 75% | 62 (±3.5) % | 73 (±4.1) % |  |  |  | Survival [5]: 89.5; HMGN1 [7]: 227%; viability at 1.1 µM ([8]; 1.1 μM): 101%; viability at […] [8]: 97.2%; viability at 10 µM ([8]; 10 μM): 91%; viability at 30 µM ([8]; 30 μM): 78%; viability at 90 µM ([8]; 90 μM): 23.2%; viability at 1.1 µM ([12]; 1.1 μM): 99.2%; viability at […] ([12]; 3.3 μM): 93.8%; viability at 10 µM ([12]; 10 μM): 63.1%; viability at 30 µM ([12]; 30 μM): 41%; viability at 90 µM ([12]; 90 μM): 13.3% |
| Dazdotuftide [LX-9601] |  |  |  |  |  |  |  |  |  |  |  |  |  |  |  |  |  | 92.2% | 69.1% | 15.0% | Survival (%) ([3]; […]): 89.0%; Survival (%) ([4]; 1.1 μM): 96.9%; Survival (%) ([4]; 10 μM): 78.8%; Survival (%) ([4]; 30 μM): 30.2%; Survival (%) ([4]; […]): 89.8%; HMGN1 [11]: 209% |
| Nc1ccc(O)c(C(=O)O)c1 [LX-9118, 5-aminosalicylic acid] | 69 (±2.4) % | 64 (±2.0) % | 75% | 1.7 fold | 1.8 fold | 71% | 62% | 83% | 74% | 199% | 1.9 Fold | 1.8 fold | 0.73 g | 0.88 g | 62% | 76 (±4.6) % | 58 (±3.5) % |  |  |  | amount of SASP, p16, SA-β-gal, lipofuscin [1]: reduced; symptoms of geriatric depression and anxiety [1]: improved; geriatric depression [2]: similarly improving geriatric depression; viability at 1.1 µM [3, 13]: 105%; viability at 10 µM [3, 13]: 81.7%; viability at 30 µM [3, 13]: 51.2%; viability at 90 µM [3, 13]: 3.4%; viability at 1.1 µM [4, 14]: 102%; viability at 10 µM [4, 14]: 94.1%; viability at 30 µM [4, 14]: 62.8%; viability at 90 µM [4, 14]: 4.9% |
| B1 |  |  |  |  |  |  |  |  |  |  |  |  |  |  |  |  |  | 97.5% | 43.2% | 5.3% | Survival (%) ([4]; 1.1 μM): 93.9%; Survival (%) ([4]; 10 μM): 58.2%; Survival (%) ([4]; 30 μM): 18.5%; Survival (%) ([4]; […]): 87.6%; HMGN1 [11]: 291% |
